Experiments:
[1] = target: T1, ER-α (Homo sapiens, UniProt P03372); experiment: Breast Cancer Cell ER-α In Cell Western Assay (SP1); assay type: cell-based; conditions: MCF-7 cells, SP1 antibody, 4 or 24 hr post compound addition; for Emax: MCF7, read-out: ER-α In Cell Western Assay (SP1) Max Response; for DC50: read-out: ER-α In Cell Western Assay (SP1) IC50
T1 sequence (P03372 1-595): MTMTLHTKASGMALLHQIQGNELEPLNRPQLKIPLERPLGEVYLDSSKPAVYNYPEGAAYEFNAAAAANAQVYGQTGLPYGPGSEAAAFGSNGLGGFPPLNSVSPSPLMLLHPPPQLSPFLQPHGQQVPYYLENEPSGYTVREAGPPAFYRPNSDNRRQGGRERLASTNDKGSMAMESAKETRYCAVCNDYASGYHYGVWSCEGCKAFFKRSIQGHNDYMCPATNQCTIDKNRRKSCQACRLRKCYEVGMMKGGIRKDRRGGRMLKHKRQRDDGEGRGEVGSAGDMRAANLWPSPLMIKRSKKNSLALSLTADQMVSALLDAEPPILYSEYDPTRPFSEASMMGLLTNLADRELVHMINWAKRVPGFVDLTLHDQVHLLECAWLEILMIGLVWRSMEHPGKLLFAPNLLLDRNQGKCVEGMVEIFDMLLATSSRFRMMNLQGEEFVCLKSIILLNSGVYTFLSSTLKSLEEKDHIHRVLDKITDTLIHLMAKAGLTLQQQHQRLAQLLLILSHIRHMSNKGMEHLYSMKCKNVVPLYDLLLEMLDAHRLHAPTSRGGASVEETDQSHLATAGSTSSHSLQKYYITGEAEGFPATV
Summary of the method: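 ER-α protein levels measured by in-cell western with SP1 antibody, ratioed to DRAQ5 DNA signal and given as percent of untreated controls. Compounds added at 0.3–0.000003 μM final (eleven semilog points) to adherent MCF-7 cells in stripped serum; exposure 4 or 24 h before fixation.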

[2] = system: MCF-7 cells; experiment: Breast Cancer Cell Viability Assay (MCF-7, CellTiter-Glo); assay type: cell-based; conditions: 5 days' compound exposure; for IC50: Homo sapiens, MCF7, 120 h
Summary of the method: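 MCF-7 cells, 320 per well in RPMI with 10% FBS and 20 mM HEPES, adhered overnight, then exposed 5 days to an eleven-point semilog dilution (final 0.3-0.000003 μM). CellTiter-Glo luminescence read; % viability = (sample − cell-free background)/(untreated − background) × 100.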

Emax [1]	DC50 [1]	IC50 [2]	SMILES	MCF7 Viability Assay Max Response [2]
≥ 40%	≤ 100 nM	≤ 100 nM	O=C(O)/C=C/c1ccc(/C(=C(\c2ccc(F)cc2Cl)C2CCC2)c2ccc3[nH]ncc3c2)cc1 [Compound 85, (E)-3-(4-((E)-2-(2-Chloro-4-fluorophenyl)-2-cyclobutyl-1-(1H-indazol-5-yl)vinyl)phenyl)acrylic acid]	++ (++ = a single % value ≧ 40%)
≥ 40%	≤ 100 nM	≤ 100 nM	O=C(O)/C=C/c1ccc(/C(=C(/CCF)c2ccc(Cl)cc2Cl)c2ccc3[nH]ncc3c2F)cc1 [Compound 122, (E)-3-(4-((E)-2-(2,4-Dichlorophenyl)-4-fluoro-1-(4-fluoro-1H-indazol-5-yl)but-1-en-1-yl)phenyl)acrylic acid]	++ (++ = a single % value ≧ 40%)
≥ 40%	≤ 100 nM	≤ 100 nM	O=C(O)/C=C/c1ccc(/C(=C(/CCCl)c2ccc(F)cc2Cl)c2ccc3[nH]ncc3c2)cc1 [Compound 67, (E)-3-(4-((E)-4-Chloro-2-(2-chloro-4-fluorophenyl)-1-(1H-indazol-5-yl)but-1-en-1-yl)phenyl)acrylic acid]	++ (++ = a single % value ≧ 40%)
≥ 40%	≤ 100 nM	≤ 100 nM	CC/C(=C(/c1ccc(/C=C/C(=O)O)cc1)c1ccc2[nH]ncc2c1)c1ccc(F)c(C)c1 [Compound 29, (E)-3-(4-((E)-2-(4-Fluoro-3-methylphenyl)-1-(1H-indazol-5-yl)but-1-en-1-yl)phenyl)acrylic acid]	++ (++ = a single % value ≧ 40%)
≥ 40%	≤ 100 nM	≤ 100 nM	Cn1ncc2cc(/C(=C(/c3ccccc3)C3CCC3)c3ccc(/C=C/C(=O)O)cc3)ccc21 [Compound 146, (E)-3-(4-((E)-2-Cyclobutyl-1-(1-methyl-1H-indazol-5-yl)-2-phenylvinyl)phenyl)acrylic acid]	++ (++ = a single % value ≧ 40%)
≥ 40%	≤ 100 nM	≤ 100 nM	CC/C(=C(/c1ccc(/C=C/C(=O)O)cc1)c1ccc2[nH]ncc2c1)c1ccc(Cl)cc1C#N [Compound 137, (E)-3-(4-((E)-2-(4-Chloro-2-cyanophenyl)-1-(1H-indazol-5-yl)but-1-en-1-yl)phenyl)acrylic acid]	++ (++ = a single % value ≧ 40%)
≥ 40%	≤ 100 nM	≤ 100 nM	CC/C(=C(/c1ccc(/C=C/C(=O)O)cc1)c1ccc2[nH]ncc2c1)c1c(C)cccc1Cl [Compound 34, (E)-3-(4-((E)-2-(2-Chloro-6-methylphenyl)-1-(1H-indazol-5-yl)but-1-en-1 yl)phenyl)acrylic acid]	++ (++ = a single % value ≧ 40%)

Second part, the molecule before the results:

SMILES	Emax [1]	DC50 [1]	IC50 [2]	MCF7 Viability Assay Max Response [2]
CC/C(=C(/c1ccc(/C=C/C(=O)O)cc1)c1ccc2[nH]ncc2c1)c1cccc(F)c1Cl [Compound 23, (E)-3-(4-((E)-2-(2-Chloro-3-fluorophenyl)-1-(1H-indazol-5-yl)but-1-en-1-yl)phenyl)acrylic acid]	≥ 40%	≤ 100 nM	≤ 100 nM	++ (++ = a single % value ≧ 40%)
Cc1cc(Cl)ccc1/C(=C(\c1ccc(/C=C/C(=O)O)cc1)c1ccc2[nH]ncc2c1)C1CC1 [Compound 126, (E)-3-(4-((E)-2-(4-Chloro-2-methylphenyl)-2-cyclopropyl-1-(1H-indazol-5-yl)vinyl)phenyl)acrylic acid]	≥ 40%	≤ 100 nM	≤ 100 nM	++ (++ = a single % value ≧ 40%)
CC/C(=C(/c1ccc(/C=C/C(=O)O)c(C(F)(F)F)c1)c1ccc2[nH]ncc2c1)c1ccccc1 [Compound 107, (E)-3-(4-((Z)-1-(1H-Indazol-5-yl)-2-phenylbut-1-en-1-yl)-2-(trifluoromethyl)phenyl)acrylic acid]	≥ 40%	≤ 100 nM	> 100 nM	++ (++ = a single % value ≧ 40%)
O=C(O)/C=C/c1ccc(/C(=C(\c2ccc(F)cc2Cl)C2CC2)c2ccc3[nH]ncc3c2F)cc1 [Compound 124, (E)-3-(4-((E)-2-(2-Chloro-4-fluorophenyl)-2-cyclopropyl-1-(4-fluoro-1H-indazol-5-yl)vinyl)phenyl)acrylic acid]	≥ 40%	≤ 100 nM	≤ 100 nM	++ (++ = a single % value ≧ 40%)
CC/C(=C(/c1ccc(/C=C/C(=O)O)cc1)c1ccc2[nH]ncc2c1)c1cccc(OC)c1 [Compound 5, (E)-3-(4-((E)-1-(1H-indazol-5-yl)-2-(3-methoxyphenyl)but-1-en-1-yl)phenyl)acrylic acid]	≥ 40%	≤ 100 nM	≤ 100 nM	++ (++ = a single % value ≧ 40%)
